Where a name gives a salt, the structure may show the parent alone. Read-outs that look alike come from different tables or passages of the source. One block for each molecule: values may come before it.
How the values were obtained:
[1] = biological target: T1, bCA IV (Bos taurus, UniProt Q95323); test: CA esterase activity assay, isozyme bCA IV; format: biochemical, bovine; conditions: Table 3
T1 construct: CA IV was isolated from bovine lung microsomes as described by Maren et al; from tissue; host or cells: bovine lung microsomes
T1 sequence (Q95323 19-284): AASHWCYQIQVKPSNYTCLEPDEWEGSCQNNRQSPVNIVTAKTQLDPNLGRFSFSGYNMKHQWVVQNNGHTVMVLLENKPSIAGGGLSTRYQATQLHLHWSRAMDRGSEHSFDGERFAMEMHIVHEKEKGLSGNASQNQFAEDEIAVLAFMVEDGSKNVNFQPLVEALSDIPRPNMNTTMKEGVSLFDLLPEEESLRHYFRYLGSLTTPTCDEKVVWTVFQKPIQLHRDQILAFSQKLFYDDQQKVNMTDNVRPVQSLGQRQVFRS

[2] = biological target: T2, hCA I (Homo sapiens, UniProt P00915); test: CA esterase activity assay, isozyme hCA I; format: biochemical; conditions: Table 3; human (cloned) isozymes, esterase assay method; read-out: KI hCA I
T2 construct: made in house; host or cells: Escherichia coli BL21 (DE3)

[3] = biological target: T3, hCA II (Homo sapiens, UniProt P00918); test: CA esterase activity assay, isozyme hCA II; format: biochemical
T3 construct: made in house; host or cells: Escherichia coli BL21 (DE3)
Experimental: Human CA I and CA II cDNAs were expressed in Escherichia coli strain BL21 (DE3) from the plasmids pACA/hCA I and pACA/hCA II described by Lindskog's group [54].
Non-enzymatic hydrolysis rates were always subtracted from the observed rates. […] Inhibitor and enzyme solutions were preincubated together for 10 min at room temperature prior to assay, in order to allow for the formation of the E-I complex. The inhibition constant KI was determined as described in references [44, 76].

[4] = system: human red cells; conditions: for [sulfonamide] in red blood cells, EI / [sulfonamide] in red blood cells, ES / [sulfonamide] in red blood cells, HPLC: human, 2 mM, pH 7.4
[5] = biological target: hCA IX (Homo sapiens, UniProt Q16790); test: CA CO2 hydrase activity assay, tumor-associated isozyme hCA IX
Experimental: An SX.18MV-R Applied Photophysics stopped-flow instrument has been used for assaying the CA CO2 hydration activity assays [44]. […] Inhibitor and enzyme solutions were preincubated together for 10 min at room temperature prior to assay, in order to allow for the formation of the E-I complex.

[6] = from bovine lung microsomes, esterase assay method, read-out: KI bCA IV
[7] = Table 3, human (cloned) isozymes, esterase assay method, read-out: KI hCA II
[8] = read-out: KI hCA IX, Table 3, catalytic domain of the human, cloned isozyme, CO2 hydrase assay method
[9] = Tables 1 and 3, read-out: KI against CA II

T2 sequence (P00915 whole entry): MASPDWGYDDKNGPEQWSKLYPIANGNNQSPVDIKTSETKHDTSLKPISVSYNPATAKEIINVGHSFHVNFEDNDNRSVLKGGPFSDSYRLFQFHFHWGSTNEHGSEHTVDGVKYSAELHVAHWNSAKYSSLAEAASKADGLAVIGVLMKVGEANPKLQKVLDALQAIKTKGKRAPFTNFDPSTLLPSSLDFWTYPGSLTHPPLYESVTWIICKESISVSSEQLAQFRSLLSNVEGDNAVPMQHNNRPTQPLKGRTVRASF

SMILES: Cc1cc(C)[n+](-c2ccc(S(=O)(=O)Nc3nnc(S(N)(=O)=O)s3)cc2)c(C)c1 (as salt: perchlorate) [Compound 71, 1-N-[5-Sulfamoyl-1,3,4-thiadiazol-2-yl-(aminosulfonyl-4-phenyl)]-2,4,6-trimethyl-pyridinium perchlorate]
melting point: > 300 °C

SMILES: Cc1cc(C(C)C)[n+](-c2ccc(S(=O)(=O)Nc3nnc(S(N)(=O)=O)s3)cc2)c(C(C)C)c1 (as salt: perchlorate) [Compound 73, 1-N-[5-Sulfamoyl-1,3,4-thiadiazol-2-yl-(aminosulfonyl-4-phenyl)]-2,6-di-iso-propyl-4-methylpyridinium perchlorate]
melting point: 278 to 279 °C

SMILES: Cc1cc(-c2ccccc2)cc(C)[n+]1-c1ccc(S(=O)(=O)Nc2nnc(S(N)(=O)=O)s2)cc1 (as salt: perchlorate) [Compound 75, 1-N-[5-Sulfamoyl-1,3,4-thiadiazol-2-yl-(aminosulfonyl-4-phenyl)]-2,6-dimethyl-4-phenylpyridinium perchlorate]
melting point: > 300 °C

SMILES: CCc1cc(-c2ccccc2)cc(CC)[n+]1-c1ccc(S(=O)(=O)Nc2nnc(S(N)(=O)=O)s2)cc1 (as salt: perchlorate) [Compound 76, 1-N-[5-Sulfamoyl-1,3,4-thiadiazol-2-yl-(aminosulfonyl-4-phenyl)]-2,6-diethyl-4-phenylpyridinium perchlorate]
melting point: 267 to 268 °C

SMILES: CCCc1cc(-c2ccccc2)cc(CCC)[n+]1-c1ccc(S(=O)(=O)Nc2nnc(S(N)(=O)=O)s2)cc1 (as salt: perchlorate) [Compound 77, 1-N-[5-Sulfamoyl-1,3,4-thiadiazol-2-yl-(aminosulfonyl-4-phenyl)]-2,6-di-n-propyl-4-phenylpyridinium perchlorate]
melting point: 235 to 237 °C

SMILES: CC(C)c1cc(-c2ccccc2)cc(C(C)C)[n+]1-c1ccc(S(=O)(=O)Nc2nnc(S(N)(=O)=O)s2)cc1 (as salt: perchlorate) [Compound 79, 1-N-[5-Sulfamoyl-1,3,4-thiadiazol-2-yl-(aminosulfonyl-4-phenyl)]-2,6-di-isopropyl-4-phenylpyridinium perchlorate]
melting point: 278 to 279 °C

SMILES: Cc1cc(-c2ccccc2)cc(-c2ccccc2)[n+]1-c1ccc(S(=O)(=O)Nc2nnc(S(N)(=O)=O)s2)cc1 (as salt: perchlorate) [Compound 80, 1-N-[5-Sulfamoyl-1,3,4-thiadiazol-2-yl-(aminosulfonyl-4-phenyl)]-2-methyl-4,6-diphenylpyridinium perchlorate]
melting point: 298 to 299 °C

SMILES: CCc1cc(-c2ccccc2)cc(-c2ccccc2)[n+]1-c1ccc(S(=O)(=O)Nc2nnc(S(N)(=O)=O)s2)cc1 (as salt: perchlorate) [Compound 81, 1-N-[5-Sulfamoyl-1,3,4-thiadiazol-2-yl-(aminosulfonyl-4-phenyl)]-2-ethyl-4,6-diphenylpyridinium perchlorate]
melting point: 254 to 255 °C

SMILES: CCCc1cc(-c2ccccc2)cc(-c2ccccc2)[n+]1-c1ccc(S(=O)(=O)Nc2nnc(S(N)(=O)=O)s2)cc1 (as salt: perchlorate) [Compound 82, 1-N-[5-Sulfamoyl-1,3,4-thiadiazol-2-yl-(aminosulfonyl-4-phenyl)]-2-n-propyl-4,6-diphenylpyridinium perchlorate]
melting point: 214 to 215 °C

SMILES: CC(C)c1cc(-c2ccccc2)cc(-c2ccccc2)[n+]1-c1ccc(S(=O)(=O)Nc2nnc(S(N)(=O)=O)s2)cc1 (as salt: perchlorate) [Compound 83, 1-N-[5-Sulfamoyl-1,3,4-thiadiazol-2-yl-(aminosulfonyl-4-phenyl)]-2-iso-propyl-4,6-diphenylpyridinium perchlorate]
melting point: 186 to 188 °C

SMILES: Cc1cc(C)[n+](-c2ccc(S(=O)(=O)Nc3nnc(S(N)(=O)=O)s3)cc2)c(C)c1 [Compound 71, 1-N-[5-Sulfamoyl-1,3,4-thiadiazol-2-yl-(aminosulfonyl-4-phenyl)]-2,4,6-trimethyl-pyridinium perchlorate]
Ki [1, 6]: 2.1 nM
Ki [2]: 4 nM
Ki [3, 7]: 0.26 nM
Ki ([3]; read-out: KI against CA II): 0.2 to 1.61 nM
amount detected within the blood red cells (membrane penetration) [4]: detected only in very small amounts
[sulfonamide] in red blood cells, EI ([4]; 30 min): 0.5 µM
[sulfonamide] in red blood cells, ES ([4]; 30 min): 0.5 µM
[sulfonamide] in red blood cells, HPLC ([4]; 30 min): 0.3 µM
[sulfonamide] in red blood cells, EI ([4]; 60 min): 0.3 µM
[sulfonamide] in red blood cells, ES ([4]; 60 min): 0.5 µM
[sulfonamide] in red blood cells, HPLC ([4]; 60 min): 0.4 µM
Ki [5]: 3 to 9 nM
times more effective than benzolamide in inhibiting CA IX ([5]; ratio of KI values): ~13
Ki [5, 8]: 3 nM

SMILES: CCc1cc(-c2ccccc2)cc(CC)[n+]1-c1ccc(S(=O)(=O)Nc2nnc(S(N)(=O)=O)s2)cc1 [Compound 76, 1-N-[5-Sulfamoyl-1,3,4-thiadiazol-2-yl-(aminosulfonyl-4-phenyl)]-2,6-diethyl-4-phenylpyridinium perchlorate]
Ki [1, 6]: 2.3 nM
Ki [2]: 4 nM
Ki [3, 7]: 0.21 nM
Ki [3, 9]: 0.2 to 1.61 nM
amount detected within the blood red cells (membrane penetration) [4]: detected only in very small amounts
[sulfonamide] in red blood cells, EI ([4]; 30 min): 1.0 µM
[sulfonamide] in red blood cells, ES ([4]; 30 min): 1.1 µM
[sulfonamide] in red blood cells, HPLC ([4]; 30 min): 1.0 µM
[sulfonamide] in red blood cells, EI ([4]; 60 min): 1.1 µM
[sulfonamide] in red blood cells, ES ([4]; 60 min): 1.2 µM
[sulfonamide] in red blood cells, HPLC ([4]; 60 min): 1.1 µM
Ki [5]: 3 to 9 nM
Ki [5, 8]: 9 nM

Further lines, results first:

melting point: 241 to 243 °C
SMILES: CCCCc1cc(-c2ccccc2)cc(-c2ccccc2)[n+]1-c1ccc(S(=O)(=O)Nc2nnc(S(N)(=O)=O)s2)cc1 (as salt: perchlorate) [Compound 84, 1-N-[5-Sulfamoyl-1,3,4-thiadiazol-2-yl-(aminosulfonyl-4-phenyl)]-2-n-butyl-4,6-diphenylpyridinium perchlorate]

melting point: 203 to 205 °C
SMILES: CC(C)(C)c1cc(-c2ccccc2)cc(-c2ccccc2)[n+]1-c1ccc(S(=O)(=O)Nc2nnc(S(N)(=O)=O)s2)cc1 (as salt: perchlorate) [Compound 85, 1-N-[5-Sulfamoyl-1,3,4-thiadiazol-2-yl-(aminosulfonyl-4-phenyl)]-2-tert-butyl-4,6-diphenylpyridinium perchlorate]

melting point: > 300 °C
SMILES: NS(=O)(=O)c1nnc(NS(=O)(=O)c2ccc(-[n+]3c(-c4ccccc4)cc(-c4ccccc4)cc3-c3ccccc3)cc2)s1 (as salt: perchlorate) [Compound 87, 1-N-[5-Sulfamoyl-1,3,4-thiadiazol-2-yl-(aminosulfonyl-4-phenyl)]-2,4,6-triphenyl-pyridinium perchlorate]

melting point: 218 to 220 °C
SMILES: NS(=O)(=O)c1nnc(NS(=O)(=O)c2ccc(-[n+]3c(-c4ccccc4)cccc3-c3ccccc3)cc2)s1 (as salt: perchlorate) [Compound 88, 1-N-[5-Sulfamoyl-1,3,4-thiadiazol-2-yl-(aminosulfonyl-4-phenyl)]-2,6-diphenylpyridinium perchlorate]

melting point: > 300 °C
SMILES: Cc1cc(C)[n+](-c2ccc(S(=O)(=O)Nc3nnc(S(N)(=O)=O)s3)cc2)c(C)c1C (as salt: perchlorate) [Compound 89, 1-N-[5-Sulfamoyl-1,3,4-thiadiazol-2-yl-(aminosulfonyl-4-phenyl)]-2,3,4,6-tetramethylpyridinium perchlorate]

Ki [1, 6]: 5.4 nM
Ki ([1]; read-out: KI against CA IV): 5.2 to 10.3 nM
Ki [2]: 5 nM
Ki [3, 7]: 4.93 nM
Ki [3, 9]: 3.13 to 5.96 nM
Ki [5]: 12 to 35 nM
Ki [5, 8]: 16 nM
SMILES: NS(=O)(=O)c1nnc(NS(=O)(=O)c2ccc(-[n+]3c(-c4ccccc4)cccc3-c3ccccc3)cc2)s1 [Compound 88, 1-N-[5-Sulfamoyl-1,3,4-thiadiazol-2-yl-(aminosulfonyl-4-phenyl)]-2,6-diphenylpyridinium perchlorate]

Ki [1, 6]: 2.4 nM
Ki [2]: 3 nM
Ki [3, 7]: 0.3 nM
amount detected within the blood red cells (membrane penetration) [4]: detected only in very small amounts
[sulfonamide] in red blood cells, EI ([4]; 30 min): 0.5 µM
[sulfonamide] in red blood cells, ES ([4]; 30 min): 0.2 µM
[sulfonamide] in red blood cells, HPLC ([4]; 30 min): 0.3 µM
[sulfonamide] in red blood cells, EI ([4]; 60 min): 0.4 µM
[sulfonamide] in red blood cells, ES ([4]; 60 min): 0.6 µM
[sulfonamide] in red blood cells, HPLC ([4]; 60 min): 0.3 µM
Ki [5]: 3 to 9 nM
Ki [5, 8]: 5 nM
SMILES: Cc1cc(C)[n+](-c2ccc(S(=O)(=O)Nc3nnc(S(N)(=O)=O)s3)cc2)c(C)c1C [Compound 89, 1-N-[5-Sulfamoyl-1,3,4-thiadiazol-2-yl-(aminosulfonyl-4-phenyl)]-2,3,4,6-tetramethylpyridinium perchlorate]

Ki [1, 6]: 5.2 nM
Ki ([1]; read-out: KI against CA IV): 5.2 to 10.3 nM
Ki [2]: 3 nM
Ki [3, 7]: 1.24 nM
Ki ([5]; KI against CA IX, text discussion of Tables 1-3): 12 to 35 nM
Ki [5, 8]: 15 nM
SMILES: Cc1c(-c2ccccc2)cc(C)[n+](-c2ccc(S(=O)(=O)Nc3nnc(S(N)(=O)=O)s3)cc2)c1C [Compound 90]

Source: patent publication US8628771B2, “CA IX-specific inhibitors” (Institute of Virology Slovak Academy of Sciences, priority 2002, dated 2014)
